# Results published in patent US11219607B2, “Methods for suppressing cancer-related cachexia” (Ohio State Innovation Foundation, priority 2013, dated 2022).
# Legend:
# C-26 tumor-bearing mice = test: Survival and body weight comparison of HDAC inhibitors, C-26 model; assay type: in vivo, CD2F1 mice; conditions: day 21, 50 mg/kg every other day orally from day 6
# Description: In one aspect, tumors were established by subcutaneous injection of C-26 cells (0.5×10^6 cells in 0.1 ml) into the right flank of male CD2F1 mice (approximately 6 weeks of age; Harlan Laboratories, Indianapolis, Ind.)(11). Tumor-bearing mice, as well as tumor-free mice serving as non-cachectic controls, were randomized into groups that were treated with either AR-42 (50 mg/kg, p.o. by gavage, every other day; Arno Therapeutics, Inc., Flemington, N.J.) or vehicle (0.5% methylcellulose (w/v) and 0.1% Tween-80 (v/v) in sterile water) starting 6 days after cell injection. To investigate the effect of delayed treatment, treatments with drug and/or vehicle were started 6, 10 and 12 days after cancer cell injection.
# In another aspect, the effects of AR-42 were compared to other HDAC inhibitors. […]
# The effects of AR-42 were compared to other HDAC inhibitors (i.e., vorinostat and romidepsin) in C-26 tumor-bearing mice. Starting on day 6 after tumor cell injection, mice were treated continuously with AR-42 (50 mg/kg every other day, orally), vorinostat [50 mg/kg once daily, orally (13)], romidepsin [0.6 mg/kg twice weekly, i.p. (14)], or vehicle, until weight loss, as determined by daily body weight measurements and subtraction of tumor mass, reached 20% of starting weight. […]
# [1] = test system: gastrocnemius muscle fibers of C-26 tumor-bearing mice; test: Morphometric analysis of muscle fiber size, C-26 model; assay type: in vivo, CD2F1 mice; conditions: day 15, tumor-bearing/vehicle 1297.6±638.8, tumor-free control 2503.5±917.5, mean±S.D.
# Description: Ten-μm sections were cut from frozen skeletal muscle samples using a cryostat (Leica) and then stained with H&E. Images were captured using an Olympus BX51 microscope (Olympus America, Inc.) and muscle fiber cross-sectional areas were determined using Olympus CellSens 1.11 software. Measurements were obtained from five different sections of muscle from each of five mice from each group.
# The protective effect of AR-42 against muscle wasting was manifested by the abrogation of cachexia-induced reduction in skeletal muscle fiber size. […] The prominent shift in fiber size distribution to smaller cross-sectional area in cachectic muscles of tumor-bearing/vehicle mice was reversed by AR-42 (FIG. 2A, right)
smiles,measurement,setting,value
"CC(C)[C@H](C(=O)Nc1ccc(C(=O)NO)cc1)c1ccccc1 [AR-42, (S)—N-hydroxy-4-(3-methyl-2-phenylbutanamido)benzamide]",cumulative survival (weight loss below 20% of starting weight),C-26 tumor-bearing mice,100%
same,mean cross-sectional area of muscle fibers,[1],2146.3±923.4 μm^2
